# Results: PMC9354243, “The Role of Tryptophan in π Interactions in Proteins: An Experimental Approach” (Journal of the American Chemical Society, 2022)
# Tests used:
# [1] = target: T1, RibU W97Y labeled with 5,6,7triFW (Lactococcus lactis subsp. cremoris, UniProt D8KIE9, W97Y); test: Fluorescence titration of RibU with RBF, 5,6,7triFW variant; type: binding
# T1 construct: His10; made in house; host or cells: Lactococcus lactis Trp auxotroph NZ9000-trp with pMG36e-trpRS
# Protocol: (§1) Fluorescence titration experiments of the different RibU constructs with RBF at 20 °C allowed estimation of the impact of W68 fluorination or 5-methylation on the binding affinity (Figure 3 and Table 5).
# (§2) Figure 3 Titration of Trp analog labeled RibU W97Y proteins with RBF. The RBF fluorescence was measured at the indicated RBF concentrations in the absence (triangles) or presence (dots) of the W97Y RibU variant (see insets). The difference between these two signals were calculated to build the titration curve. This curve was used to compute the RBF Kd (see Experimental Section in the Supporting Information). […]
# (§3) Binding assays – Fluorescence titrations of RibU with RBF.
# (§4) The concentration of the riboflavin stock was established using a Jasco V-650 spectrophotometer with an ε435 of 12600 M-1.cm-1 The concentration of RibU-His was calculated using a Nanodrop (Thermo […]
# (§5) Riboflavin was excited at 435 nm and emission was recorded between 450 nm and 700 nm using a FluoroLog 322 Spectrofluorometer (Jobin Yvon). […] Titration experiments were performed in a 1 mL quartz cuvette at 20 °C as described.13 In brief, purified and desalted RibU protein in gel filtration buffer was titrated with RBF and after each addition the emission spectrum was recorded twice, corrected for buffer emission and instrument response and integrated. […]
# [2] = target: T2, RibU W97Y labeled with 5MeW (Lactococcus lactis subsp. cremoris, UniProt D8KIE9, W97Y); test: Fluorescence titration of RibU with RBF, 5MeW variant; type: binding
# T2 construct: His10; made in house; host or cells: Lactococcus lactis Trp auxotroph NZ9000-trp with pMG36e-trpRS
# T2 sequence (D8KIE9 whole entry W97Y): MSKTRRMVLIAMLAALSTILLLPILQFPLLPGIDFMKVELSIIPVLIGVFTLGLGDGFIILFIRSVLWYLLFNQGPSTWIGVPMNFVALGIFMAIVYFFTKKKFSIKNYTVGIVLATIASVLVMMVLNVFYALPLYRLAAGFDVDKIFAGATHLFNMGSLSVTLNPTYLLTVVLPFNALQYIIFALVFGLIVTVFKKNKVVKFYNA
# Protocol: as §1, §2, §3, §4, §5
# RibU W68Y mutant = tested on: RibU W68Y mutant; set-up: method as in PMID 17289680; details: W68Y mutant versus RibU; cited from earlier work
# T1 sequence (D8KIE9 whole entry W97Y): as above
smiles,measurement,setting,value
"Cc1cc2nc3c(=O)[nH]c(=O)nc-3n(C[C@H](O)[C@H](O)[C@H](O)CO)c2cc1C [RBF, riboflavin]",Kd,[1],24.9 ± 2.7 nM
same,Fold lowering of the affinity by progressive fluorination of W68,"[1]; 20 °C, up to three fluoro-atoms introduced",15 fold
same,Kd,[2],1.2 ± 0.1 nM
same,Fold drop of RBF binding affinity,RibU W68Y mutant,~100 fold
